Measurements: US20230074885A1, “BORTEZOMIB-LOADED NANOPARTICLES” (The Johns Hopkins University, priority 2020, published 2023)

Experiments:
[1] = Dose escalation test on animal survival; assay type: in vivo, mice
Protocol: Dose escalation test on animal survival following local subcutaneous injection of the 1-month BTZ nanoparticle (BTZ NP) formulation in comparison with free BTZ injection via intratumor injection.
The recommended dose in patients is 1.3 mg/m^2. This dose is also the maximum tolerated dose in patients. […] One of the essential features of BTZ-NP is the ability to release active BTZ gradually. The ability of BTZ-NP to release BTZ slowly by subcutaneous injections was evaluated with increasing doses of BTZ-NP. As shown, a dose of 108 mg/m^2 could be injected without any death in rodents. This dose is approximately 80-fold higher than the dose of the free drug that is sufficient to kill rodents.

[2] = test system: primary patient-derived cancer organoid (PDO) cultures from patients with liver cancers; assay: FDA-approved cancer drugs tested across patient-derived cancer organoid (PDO) cultures; assay type: cell-based, human
Protocol: Thirty-seven primary patient-derived cancer organoid (PDO) cultures have been established from patients with liver cancers (including hepatocellular cancer and cholangiocarcinoma). Food and Drug Administration (FDA)-approved cancer drugs (irrespective of FDA indication) were tested across all 37 PDO cultures.

[3] = test system: patient derived xenograft (PDX) model established from a human primary HCC; assay: In vivo treatment of patient derived xenograft (PDX) mouse model of liver cancer; set-up: species or system NSG mice
Protocol: In vivo therapeutic effect of BTZ-loaded nanoparticles. The therapeutic effect of BTZ-loaded nanoparticles was assessed using patient derived xenograft (PDX) model. Briefly, fresh human tumor tissue was harvested from HCC patients, then cut in small pieces (3^3 mm^3) and implanted subcutaneously in the right flank of NSG mice. Once tumors grew, a similar process (harvesting tumors from mice, mincing and inserting in new mice) was implemented. Mice at the 5th passage of PDX were utilized in this experiment. After implantation subcutaneously, the tumor is allowed to grow to approximately 1,000 mm^3. Next, mice were randomized to blank nanoparticles and BTZ-loaded nanoparticles with an equivalence of 2.2 mg/kg BTZ. The tumor sizes of mice in different groups were measured through two weeks and were taken as the reflection of therapeutic effect of different formulations.

[4] = cited from earlier work

CC(C)C[C@H](NC(=O)[C@H](Cc1ccccc1)NC(=O)c1cnccn1)B(O)O [free BTZ, bortezomib]
cause of death ([1]; 1 mg/kg free BTZ, intra-tumor injection): liver failure | Survival ([1]; 1 mg/kg free BTZ, single intra-tumor injection, 12.5 μg/dose, 1.5 mg/m^2): 0/5 | lethal dose in rodent model ([1]; intratumoral injection): 1.5 mg/m^2 | effectiveness across PDO lines ([2]; 37 PDO cultures, hepatocellular cancer and cholangiocarcinoma): highly effective across all tested PDO lines | effectiveness compared with currently approved FDA drugs for unresectable liver cancers ([2]; across all 37 PDO lines): more effective than any of the currently approved FDA drugs | animal death due to toxicity ([3]; high dose 0.8 mg/kg free BTZ): died 1 day after injection | efficacy in PDX model of liver cancer ([3]; mouse, in vivo): effective | recommended dose / maximum tolerated dose in patients [4]: 1.3 mg/m^2
